From paper PMC9646836, “Tetrahydroquinolinone derivatives exert antiproliferative effect on lung cancer cells through apoptosis induction” (Scientific Reports, 2022)

How the values were obtained:
[1] = system: HCT-116; experiment: MTT cell viability assay, HCT-116; type: cell-based, human; settings: mean ± SD, n = 3
Procedure: (§1) All new tetrahydroquinoline derivatives were assessed for cytotoxicity on a broad panel of cancer and normal cell lines, using the MTT assay. The half-inhibitory growth inhibitory concentration (IC50) values of each compound were calculated after 72 h of treatment and presented in Table 1. […] In this assay, the IC50 value of 5-FU and ETP was recorded as a positive control.
(§2) Non-small cell lung cancer cells A549 (CCL-185), breast cancer cells MCF-7 ([…]), hepatocarcinoma cells HepG2 ([…]), normal kidney cells HEK293 (CRL-1573), and osteosarcoma cells U-2 OS (HTB-96) were obtained from the American Type Culture Collection. HCT-116 cell line was kindly provided by prof. Bert Vogelstein (Johns Hopkins University, Howard Hughes Medical Institute, USA). The obtained A549 and MCF-7 cells were cultured in RPMI-1640 medium, HepG2 cells in Minimum Essential Medium Eagle medium, HEK-293 cells in Dulbecco’s Modified Eagle’s medium, and U-2 OS and HCT-116 cells in McCoy’s […] medium. All culture media were supplemented with 10% fetal bovine serum, 2 mM L-glutamine, and antibiotics (penicillin 62.6 µg/ml and streptomycin 40 µg/ml; Sigma-Aldrich). Both cancer and normal cells were cultured at 37 °C under a humidified atmosphere with 5% or 10% CO2 and routinely screened for Mycoplasma contamination. All materials and reagents were obtained from Corning unless stated otherwise.
(§3) The cytotoxic effect of the synthesized compounds was assessed by the MTT (4,5-dimethylthiazol-2-yl-2,5-diphenyltetrazoliumbromide; Sigma-Aldrich) assay. Briefly, the cells were seeded into 96-well transparent flat-bottom plates and allowed to attach overnight. On the next day, the cells were treated with compounds in the range of 0–50 µM for 72 h. Dimethyl sulfoxide (DMSO; Merck) and 5-fluorouracil (5-FU; Sigma-Aldrich) were used as a reference. After exposure to the compounds, 20 μl of the MTT solution at a concentration of 4 mg/ml was added to each well, and the plates were incubated again for 2–3 h at 37 °C. Next, the media in the wells was replaced with 100 μl DMSO to solubilize the formazan crystals. The absorbance was measured at 540 nm using an ASYS UVM340 microplate reader (Biochrom Ltd.). The IC50 value of the compounds was calculated using GraphPad Prism 9 software, based on the curves plotted with survival as a function of dose, averaged from three independent experiments.

[2] = system: A549; experiment: MTT cell viability assay, A549; type: cell-based, human; settings: mean ± SD, n = 3
Procedure: as §1, §2, §3

[3] = system: MCF-7; experiment: MTT cell viability assay, MCF-7; type: cell-based, human; settings: mean ± SD, n = 3
Procedure: as §1, §2, §3

[4] = system: HepG2; experiment: MTT cell viability assay, HepG2; type: cell-based; settings: mean ± SD, n = 3
Procedure: as §1, §2, §3

[5] = system: Hela; experiment: MTT cell viability assay, Hela; type: cell-based; settings: 72 h, mean ± SD, n = 3
Procedure: as §1, §3

[6] = system: HEK293; experiment: MTT cell viability assay, HEK293 normal kidney cells; type: cell-based, human; settings: for IC50: MTT, 72 h, normal kidney cells, mean ± SD, n = 3
Procedure: as §1, §2, §3

[7] = system: tested cell lines (HCT-116, A549, MCF-7, HepG2, Hela, HEK293); experiment: MTT assay, broad panel of cancer and normal cell lines; type: cell-based; settings: range of 0–50 µM, 72 h
Procedure: as §1, §3

Structure (SMILES)	IC50 ([1]; 72 h) [µM]	IC50 ([1]; Homo sapiens, HCT-116, 72 h) [µM]	IC50 ([2]; Homo sapiens, A549, 72 h) [µM]	IC50 ([3]; Homo sapiens, MCF7, 72 h) [µM]	IC50 ([4]; Homo sapiens, HepG2, 72 h) [µM]	IC50 ([5]; Homo sapiens, HeLa) [µM]	IC50 ([2]; 72 h) [µM]	IC50 ([3]; 72 h) [µM]	IC50 ([4]; 72 h) [µM]	IC50 [5] [µM]	IC50 ([6]; Homo sapiens, HEK293) [µM]	IC50 [6] [µM]	effect on the tested cell lines [7]	suppressive effect on human normal HEK293 kidney cells ([6]; tested concentrations, compared to A549 and HCT-116)
Clc1nc2c(c(-c3ccccc3)c1Cc1cccc3ccccc13)CCCC2 [Compound 5, 2-chloro-3-(1-naphthylmethyl)-4-phenyl-5,6,7,8-tetrahydroquinoline]	13.1 ± 0.96	~13	> 50	> 50	> 50	> 50	–	–	–	–	> 50	–	–	–
COc1cc([C@@H]2c3cc4c(cc3[C@@H](O[C@@H]3O[C@@H]5CO[C@@H](C)O[C@H]5[C@H](O)[C@H]3O)[C@H]3COC(=O)[C@H]23)OCO4)cc(OC)c1O [ETP, reference compound]	0.39 ± 0.01	–	–	–	–	–	0.54 ± 0.21	0.83 ± 0.15	5.01 ± 0.22	3.4 ± 0.51	–	1.91 ± 0.97	–	–
O=c1[nH]cc(F)c(=O)[nH]1 [Compound 5-FU, 5-fluorouracil, reference compound]	–	5.78 ± 0.38	–	8.41 ± 0.98	13.1 ± 0.32	11.1 ± 1.53	–	–	–	–	16.8 ± 0.34	–	–	–
O=c1[nH]c2c(c(-c3ccccc3)c1Cc1ccc(-c3ccccc3)cc1)CCCC2 [Compound 4c, 4-phenyl-3-[(4-phenylphenyl)methyl]-5,6,7,8-tetrahydro-1H-quinolin-2-one]	–	> 50	> 50	> 50	> 50	> 50	–	–	–	–	> 50	–	did not have any effect	–
O=c1[nH]c2c(c(-c3ccccc3)c1Cc1cccc(-c3ccccc3)c1)CCCC2 [Compound 4d, 4-phenyl-3-[(3-phenylphenyl)methyl]-5,6,7,8-tetrahydro-1H-quinolin-2-one]	–	> 50	> 50	> 50	> 50	> 50	–	–	–	–	> 50	–	did not have any effect	–

Further lines, with some results ahead:

IC50 ([1]; 72 h) [µM]	IC50 ([1]; Homo sapiens, HCT-116, 72 h) [µM]	IC50 ([2]; Homo sapiens, A549, 72 h) [µM]	IC50 ([3]; Homo sapiens, MCF7, 72 h) [µM]	IC50 ([4]; Homo sapiens, HepG2, 72 h) [µM]	IC50 ([5]; Homo sapiens, HeLa) [µM]	IC50 ([2]; 72 h) [µM]	IC50 ([3]; 72 h) [µM]	IC50 ([4]; 72 h) [µM]	IC50 [5] [µM]	Structure (SMILES)	IC50 ([6]; Homo sapiens, HEK293) [µM]	IC50 [6] [µM]	effect on the tested cell lines [7]	suppressive effect on human normal HEK293 kidney cells ([6]; tested concentrations, compared to A549 and HCT-116)
15.6 ± 1.29	~13	40.2 ± 0.94	> 50	> 50	50	–	–	–	–	COc1nc2c(c(-c3ccccc3)c1Cc1cccc3ccccc13)CCCC2 [Compound 6, 2-methoxy-3-(1-naphthylmethyl)-4-phenyl-5,6,7,8-tetrahydroquinoline]	> 50	–	–	almost no suppressive effect
–	> 50	> 50	> 50	> 50	> 50	–	–	–	–	O=c1[nH]c2c(c(-c3ccccc3)c1Cc1ccc3ccccc3c1)CCCC2 [Compound 4b, 3-(2-naphthylmethyl)-4-phenyl-5,6,7,8-tetrahydro-1H-quinolin-2-one]	> 50	–	did not have any effect	–
–	> 50	> 50	> 50	> 50	> 50	–	–	–	–	O=c1[nH]c2c(c(-c3ccccc3)c1Cc1ccc(C(F)(F)F)cc1)CCCC2 [Compound 4e, 4-phenyl-3-[[4-(trifluoromethyl)phenyl]methyl]-5,6,7,8-tetrahydro-1H-quinolin-2-one]	> 50	–	did not have any effect	–
